# In US8735353B2, “Polypeptides and uses thereof” (priority 2009, dated 2014):
# What was measured:
# E. coli = test: Radial diffusion assay (RDA); assay type: cell-based
# Protocol: Essentially as described earlier, bacteria were grown to mid-logarithmic phase in […] of full-strength (3% w/v) trypticase soy broth (TSB) (Becton-Dickinson). The microorganisms were then washed once with 10 mM Tris, pH 7.4. Subsequently, 4×10^8 cfu were added to 15 ml of the underlay agarose gel, consisting of 0.03% (w/v) TSB, 1% (w/v) low electroendosmosis type (EEO) agarose (Sigma-Aldrich) and 0.02% (v/v) Tween 20 (Sigma-Aldrich). The underlay was poured into a Ø 144 mm petri dish. After agarose solidification, 4 mm-diameter wells were punched and 6 μl peptide solution of required concentration added to each well. Plates were incubated at 37° C. for 3 h to allow peptide diffusion. The underlay gel was then covered with 15 ml of molten overlay (6% TSB and 1% Low-EEO agarose in distilled H2O). Antimicrobial activity of a peptide was visualized as a zone of clearing around each well after 18-24 h of incubation at 37° C.
# Essentially as described earlier bacteria were grown to mid-logarithmic phase in 10 ml of full-strength (3% w/v) trypticase soy broth (TSB) (Becton-Dickinson, Cockeysville, Md.). The microorganisms were then washed once with 10 mM Tris, pH 7.4. […]
# RAW 264.7 macrophages = test: LPS effects on macrophages in vitro, NO production (Griess reaction); assay type: cell-based, mouse; settings: for effect on NO production of LPS-stimulated macrophages: RAW 264.7, LPS
# Protocol: 3.5×10^5 cells were seeded in 96-well tissue culture plates (Nunc, 167008) in phenol red-free DMEM (Gibco) supplemented with 10% FBS and antibiotics. Following 6 hours of incubation to permit adherence, cells were stimulated with 100 or 10 ng/mL E. coli (0111:B4) or P. aeruginosa LPS (Sigma), with and without peptide of various doses. The levels of NO in culture supernatants were determined after 24 hours from stimulation using the Griess reaction [38]. Briefly, nitrite, a stable product of NO degradation, was measured by mixing 50 μl of culture supernatants with the same volume of Griess reagent (Sigma, G4410) and reading absorbance at 550 nm after 15 min. Phenol-red free DMEM with FBS and antibiotics were used as a blank. A standard curve was prepared using 0-80 μM sodium nitrite solutions in ddH2O.
# 3.5×10^5 RAW 264.7 cells were seeded in 96-well tissue culture plates (Nunc no. 167008) in phenol red-free DMEM (Gibco) supplemented with 10% FBS containing 1% Anti-Anti (Invitrogen). […] The level of NO in culture supernatants was determined after a period of 20 hours using the Griess reaction (27)ref. Briefly, Nitrite, a stable product of NO degradation, was measured by mixing 50 μl of culture supernatants with the same volume of Griess reagent (Sigma, G4410), and reading absorbance at 550 nm after 15 min. Phenol-red free DMEM with FBS and antibiotics were used as a blank. A standard curve was prepared using sodium nitrite at 0-80 μM in ddH2O.
# 3.5×10^5 cells were seeded in 96-well tissue culture plates (Nunc, 167008) in phenol red-free DMEM (Gibco) supplemented with 10% FBS and antibiotics. […] The levels of NO in culture supernatants were determined after 24 hours from stimulation using the Griess reaction [25]. Briefly, nitrite, a stable product of NO degradation, was measured by mixing 50 μl of culture supernatants with the same volume of Griess reagent (Sigma, G4410) and reading absorbance at 550 nm after 15 min. […]
# RAW 264.7 cells = test: Cytokine release from LPS-stimulated RAW 264.7 cells; assay type: cell-based, mouse; settings: 10 ng/ml E. coli LPS
# Protocol: RAW 264.7 cells were stimulated with 10 ng/ml E. coli LPS and cytokines were analysed in the cell supernatants.
# (§1) The cytokines IL-6, IL-10, MCP-1, INF-γ, and TNF-α were measured in cell culture supernatants from RAW264.7 cells and plasma from mice injected with LPS or P. aeruginosa (with or without peptide treatment) using the Cytometric bead array; Mouse Inflammation Kit (Becton Dickinson AB) according to the manufacturer's instructions. All plasma samples were stored at −20° C. before the analysis.
# [1] = test system: human peripheral blood monocytes; test: TNF-α assay in human peripheral blood monocytes; assay type: cell-based; settings: 10 ng/ml E. coli LPS
# Protocol: Cell supernatants were collected and stored at −20° C. […] Plasma was obtained by centrifuging at 400 g, 10 min and stored at −20° C. The TNF-α level was measured using a human TNF-Elisa Kit (Invitrogen).
# human citrate plasma = test: Clotting assays in plasma (aPTT, PT, TCT); assay type: biochemical; settings: 20 μM peptide
# Protocol: (§2) All clotting times were analyzed using a coagulometer (Amelung, Lemgo, Germany). […] (PT-thromboplastin reagent (Trinity Biotech), TCT: Thrombin reagent (Technoclone)). To record the activated partial thromboplastin time (aPTT), 100 μl of a kaolin-containing solution (Technoclone) was add to the plasma-peptide mix and incubated for 200 sec before clot formation was initiated by adding 100 μl of 30 mM fresh CaCl2 solution. […] Cells were washed and resuspended in 100 μl PBS. Hundred microliter of fresh human citrate plasma were reconstituted with 100 μl of fresh 30 mM CaCl2 solution and pre-warmed for 60 sec. The clot formation was started by adding the hPBMNC. The same procedure was used to determine clotting times for whole blood.
# human monocytes = test: Clotting time, LPS-stimulated human monocytes added to citrate plasma; assay type: cell-based; settings: concentrations similar to physiological thrombin (1.5 μM)
# Protocol: Whole blood was incubated with 10 ng/ml E. coli LPS+/−the indicated concentrations of peptide. The clotting reaction in human citrated plasma was initiated by adding the blood cells. […] Human monocytes were stimulated with LPS and/or peptides, and the clotting times were determined by adding the treated cells to human citrate plasma supplemented with CaCl2
# as §2
# LPS-induced shock = test: LPS model in vivo, E. coli LPS (Example B); set-up: species or system C57BL/6 mice
# Protocol: Male C57BL/6 mice (8 weeks, 21+/−5 g), were injected intraperitoneally with 18 mg E. coli 0111:B4 LPS or 36 mg P. aeruginosa LPS (Sigma) per kg of body weight. […] Survival and status was followed during seven days. For SEM and histochemistry, mice were sacrificed 20 h after LPS challenge, and lungs, liver, kidney, and spleen were removed and fixed. For determination of cytokine levels in mouse plasma, animals were sacrificed 8 h and 20 h after LPS injection. The blood was collected immediately by cardiac puncture. These experiments were approved by the Laboratory Animal Ethics Committee of Malmö/Lund.
# Mouse blood (anti-coagulated with EDTA) was taken by cardiac puncture and analysed with the VetScan HM5 System (TRIOLAB). The number of white blood cells, percentages of lymphocytes, neutrophils, monocytes and platelets were determined.
# as §1
# For scanning electron microscopy lungs were taken 20 h after LPS injection. […] Specimens were washed with cacodylate buffer, and dehydrated with an ascending ethanol series from 50% (vv) to absolute ethanol. The specimens were then subjected to critical-point drying in carbon dioxide, with absolute ethanol as intermediate solvent, mounted, on aluminium holders, sputtered with 30 nm palladium/gold and examined in a JEOL JSM-350 scanning electron microscope
# E. coli ATCC 25922 = test: Viable count assay; assay type: cell-based; settings: E. coli ATCC 25922, proteins and peptides at 3 and 6 μM
# Protocol: E. coli bacteria were grown to mid-logarithmic phase in Todd-Hewitt (TH) medium. They were then washed and diluted in 10 mM Tris, pH 7.4 containing 5 mM glucose. […] To quantify the bactericidal activity, serial dilutions of the incubation mixtures were plated on TH agar, followed by incubation at 37° C. overnight and the number of colony-forming units was determined. 100% survival was defined as total survival of bacteria in the same buffer and under the same condition in the absence of peptide.
# E. coli ATCC 25922 bacteria were grown to mid-logarithmic phase in Todd-Hewitt (TH) medium. Bacteria were washed and re-suspended in 10 mM Tris, pH 7.4 containing 5 mM glucose. […] Serial dilutions of the incubation mixtures were plated on TH agar, followed by incubation at 37° C. overnight and cfu determination.
# E. coli ATCC 25922 bacteria were grown to mid-logarithmic phase in Todd-Hewitt (TH) medium (Becton and Dickinson, Maryland, USA). The microorganisms were then washed and diluted in 10 mM Tris, pH 7.4 containing 5 mM glucose. […] To quantify the bactericidal activity, serial dilutions of the incubation mixtures were plated on TH agar, followed by incubation at 37° C. overnight and the number of colony-forming units was determined. […] Significance was determined using the statistical software SigmaStat (SPSS Inc., Chicago, Ill., USA).
substance,measurement,setting,value
VFRLKKWIQKVI (12-mer thrombin-derived peptide) [VFR12],bactericidal potency in RDA at high salt,"E. coli; E. coli ATCC 25922, 0.15M NaCl, peptide at 100 μM",retained good bactericidal potency
same,effect on NO production of LPS-stimulated macrophages,RAW 264.7 macrophages,not able to block LPS effects
HVFRLKKWIQKVIDQFGE (HVF18) [endogenously produced C-terminal thrombin peptide],concentration completely eliminating LPS-induced NO-responses,"RAW 264.7 macrophages; RAW 264.7, 10 ng/ml LPS",much higher doses
same,effect on IL-10,RAW 264.7 cells,significant up-regulation of IL-10
same,effect on cytokines at 10 μM,RAW 264.7 cells; peptide 10 μM,not
same,TNF-α production,[1],damped TNF-α production
same,activated partial thromboplastin time (aPTT),human citrate plasma,significantly prolong
same,prothrombin time (PT),human citrate plasma,not significantly affected
same,thrombin clotting time (TCT),human citrate plasma,not significantly affected
same,clotting time with LPS-stimulated monocytes (TF-mediated coagulation),human monocytes,less potent
same,weight,"LPS-induced shock; 0.5 mg peptide, followed 7 days",full recovery of weight
same,survival in LPS-induced shock,"LPS-induced shock; 18 mg/kg E. coli LPS i.p., 0.5 mg peptide 30 minutes later",100%
same,"proinflammatory IL-6, IFN-γ, TNF-α, MCP-1 in blood","LPS-induced shock; 8 and 20 h after LPS injection, 0.5 mg peptide",significant reductions
same,platelet counts,"LPS-induced shock; 8 and 20 h after LPS, 0.5 mg peptide",significantly increased platelets
same,IL-10 in blood,LPS-induced shock; 8 h after LPS injection,increase in IL-10
VFRLKKWIQKVIDQFGE (VFR17),antibacterial activity in viable count assay,E. coli ATCC 25922,significant antibacterial activities
"WFFFYYLIIGGGVVTHQQRKKKKDE (WFF25 peptide) [control peptide, same composition as GKY25, amino acids sorted after hydrophobicity, reference compound]",effect on NO production of LPS-stimulated macrophages,RAW 264.7 macrophages,did not show anti-inflammatory effects
same,survival in LPS-induced shock,"LPS-induced shock; 500 μg i.p., followed 7 days",does not increase survival
thrombin,antimicrobial activity of intact protein in RDA,"E. coli; E. coli, low-salt conditions, not digested with neutrophil elastase",inactive
